Our source for the TGI and GI50 values is PubChem BioAssay (NCI).

What all share (test): NCI tumour cell line growth inhibition, 48 h
The subject of assay [1] is KM12 colon.
For assay [2], the system named is HS 578T breast.
Assay [3] relates to BT-549 breast.
Assay [4] relates to SK-MEL-28 melanoma.
Assay [5] deals with RXF 393 renal.
For assay [6], the system named is OVCAR-5 ovarian.
For assay [7], the system named is MDA-MB-231 breast.
The test system of assay [8] is PC-3 prostate.
The subject of assay [9] is SNB-75 CNS.
Assay [10] deals with SK-OV-3 ovarian.

Values joined by “and” are separate entries in the source; they are usually repeats but may differ in a detail not shown here. Equal values may be shown once.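 Interpolation was linear, between the two tested concentrations surrounding the appropriate level; five concentrations were tested over 48 hours in 96-well plates. GI50 = concentration required for 50% inhibition of growth. Definition used: TGI = concentration required for complete inhibition of growth.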 A value given as a limit tells only on which side of the number the result lay.

Take `O=C1NC(=O)C(C(c2ccc(Cl)cc2)C2C(=O)NC(=O)NC2=O)C(=O)N1`: the TGI in [1], in assay [2], in [3], in assay [4], in assay [5] and in assay [6] was over 100 µM in each case. Moreover, the TGI in assay [7] and in assay [8] was over 100 µM each time.
Turning to `Nc1nc(NNc2ccc(Cl)c(Cl)c2)cc(=O)[nH]1`, the TGI is over 100 µM in assay [1]; over 100 µM in assay [2]; 82.5 µM in [3]; over 100 µM in assay [4]; 67.5 µM in assay [5]; over 100 µM in [6]. Besides, the TGI in assay [7] and in assay [8] was over 100 µM each time.
In the case of `COc1ccc(N[C@H](CS(=O)c2ccc(C)cc2)C(F)(F)C(F)(F)F)cc1` (stereo not given in full), the TGI in assay [1] is over 100 µM; in assay [2] it was over 100 µM; in [3], over 100 µM; in assay [4], over 100 µM; in assay [5], 32.4 µM; in assay [9], 75.6 µM. The TGI in assay [6] and in assay [10] was over 100 µM in each case.
`COc1ccc(C2=NN(c3ccccc3)C(c3cc4cc(Br)ccc4nc3Cl)C2)cc1` (stereo not given): the TGI in assay [1], in assay [2], in assay [3], in [4], in [5] and in [9] was over 25 µM in each case. The TGI in assay [6], in [10] and in assay [8] was over 25 µM throughout.
`COc1ccc(N2C(=O)/C(=C\c3cccc(Oc4ccccc4)c3)S(=O)(=O)C2c2ccccc2)cc1` (stereo not given): the TGI in assay [1] is over 100 µM; in assay [3], 91.7 µM; in assay [4], over 100 µM; in assay [5], over 100 µM; in assay [6] it was over 100 µM; in assay [7] it was over 100 µM. The compound also displayed a TGI in assay [8] of over 100 µM.
`O=C1CC(=O)c2c(Cl)sc(Cl)c21`: the TGI in assay [1] is over 100 µM; in assay [2], 93.9 µM; in [3], over 100 µM; in assay [4] it was over 100 µM; in assay [5], 86.2 µM; in assay [9], over 100 µM. Besides, the TGI in assay [6], in assay [7] and in assay [10] was over 100 µM each time.
On to `COC(=O)C1C2C=CC(C2)N1S(=O)(=O)c1ccccc1` (stereo not given), for which the TGI in assay [1], in assay [4], in assay [5], in [6], in assay [7] and in [10] was over 100 µM each time. In addition, the TGI in assay [8] is over 100 µM.
For the compound `O=C(/C=C(\Nc1ccccc1O)c1ccccc1)C(=O)NC12CC3CC(CC(C3)C1)C2`, the TGI in assay [1], in [2], in [4], in assay [5], in assay [9] and in assay [6] was over 10 µM in each case. The TGI in [7], in [10] and in [8] was over 10 µM in each case.
On to `CC(=O)Nc1cc2c(cc1O)CC[C@@H]1[C@@H]2CC[C@]2(C)[C@@H](O)CC[C@@H]12`, for which the TGI in [1] was 31.4 µM; in assay [2], over 100 µM; in assay [3], 86.3 µM; in assay [4], over 100 µM; in assay [5] it was over 100 µM; in assay [6], over 100 µM. The TGI in [7], in assay [10] and in [8] was over 100 µM throughout.
As for `O=c1cc(-c2ccccc2)oc2ccc(Oc3nnnn3-c3ccccc3)cc12`, the TGI in [1] was over 100 µM; in [2], over 83 µM; in assay [3] it was 70.7 µM; in assay [4] it was over 100 µM; in [5], over 76.1 µM; in [9], over 92.5 µM. Moreover, the TGI in assay [6], in assay [10] and in [8] was over 100 µM throughout.
For the compound `Oc1c(-c2ccccc2)sc2ccccc12`, the TGI in assay [1] is 75.6 µM; in [2], over 100 µM; in [3], 89.4 µM; in assay [4], over 100 µM; in [5], 45.1 µM; in [9], 52.1 µM. Further, the TGI came out at 90.3 µM in assay [6], 29.1 µM in assay [7] and 69.1 µM in assay [8].
As for `CCOC(=O)c1cccc([N+](=O)[O-])c1N`, the TGI in [1], in [2], in assay [3], in assay [4], in [9] and in assay [6] was over 100 µM in each case. The TGI in [7], in [10] and in assay [8] was over 100 µM in each case.
Regarding `C#CCOC(=O)C(N)CSSCC(N)C(=O)O` (stereo not given), the TGI in assay [1], in [2], in assay [3], in assay [4], in assay [5] and in [9] was over 100 µM in each case. Besides, the TGI in assay [6], in assay [7] and in assay [8] was over 100 µM each time.
For `CN1CCN(C(=S)N(C(=O)c2ccco2)c2ccccc2)CC1`, the TGI in [1], in assay [2], in [3], in assay [4], in assay [5] and in assay [9] was over 100 µM each time. Further, the TGI in assay [6] and in [7] was over 100 µM throughout.
Take `COc1ccccc1S(=O)Nc1ccccc1` (stereo not given): the TGI in assay [1] was 85.1 µM; in assay [2], over 100 µM; in assay [3] it was over 100 µM; in assay [4] it was over 100 µM; in assay [6] it was over 100 µM; in assay [7], over 100 µM.
Regarding `C=C1CC(Cn2cc(C)c(=O)[nH]c2=O)(c2ccc(-c3ccccc3)cc2)OC1=O` (stereo not given), the TGI in assay [1] was 7.36 µM; in [2], over 21.2 µM; in [3], 3.08 µM; in assay [4] it was 3.75 µM; in assay [9] it was 21.8 µM; in assay [6] it was 23.3 µM. Besides, the TGI was 5.16 µM in [7], 17.7 µM in [10] and 5.31 µM in assay [8].
Turning to `Cc1cc2c(cc1C)[n+](=O)c(C(=O)N1CCN(c3ccc([N+](=O)[O-])cc3)CC1)c(C)n2[O-]`, the TGI in assay [1] was over 100 µM; in [2], over 100 µM; in assay [3] it was 49.9 µM; in assay [4], over 100 µM; in assay [5], 41.3 µM; in [6] it was over 100 µM. Further, the values for the TGI in [7], in [10] and in assay [8] were 55.5 µM, 51.2 µM and over 100 µM, respectively.
As for `N=C(N)n1[nH]c2c(c1=O)CCCC2`, the TGI is over 100 µM in assay [1]; over 100 µM in [2]; over 100 µM in [4]; over 100 µM in assay [5]; 99.7 µM in assay [9]; over 100 µM in assay [6]. In addition, the TGI in assay [7], in assay [10] and in [8] was over 100 µM throughout.
Turning to `COc1ccc(-n2c(C)nc3ccc(NC4OCC(O)C(O)C4O)cc3c2=O)cc1` (stereo not given), the GI50 in assay [1] is 36.5 µM and > 100 µM. Also, the TGI in [1] is over 100 µM; in [2], over 100 µM; in assay [3], over 100 µM; in assay [4], > 100 µM and 57 µM; in [5], 81.9 µM and 87.8 µM; in assay [9], over 100 µM. Besides, the TGI in assay [6], in assay [7] and in assay [8] was over 100 µM each time.
For `Cc1ccc(/C(=C/C=C(C#N)C#N)Sc2cc(Cl)ccc2Cl)cc1`, the TGI in [1] was 28 µM; in [2], 9.23 µM; in assay [4] it was 28.9 µM; in [5] it was 27.8 µM; in [9], 38.7 µM; in assay [6] it was 19.4 µM. Moreover, the values for the TGI in [7] and in assay [10] were 13 µM and 27.8 µM, respectively.
On to `CC(=O)[O-].CC(=O)[O-].[NH2-].[Pt+2].c1ccncc1`, for which the TGI was over 100 µM in assay [1]; over 100 µM in assay [2]; over 100 µM in [4]; 64.6 µM in assay [5]; over 100 µM in assay [9]; over 100 µM in assay [6]. The TGI in assay [7], in [10] and in assay [8] was over 100 µM each time. Moreover, the GI50 in assay [2] was 98.7 µM; in assay [7] it was over 100 µM; in assay [8], over 100 µM.
For `CN(C)CC(CO)(CN(C)C)CN(C)C`, the TGI in assay [1], in assay [3], in assay [4], in [5], in [9] and in [6] was over 100 µM throughout. In addition, the TGI in [10] and in [8] was over 100 µM each time.
As to `Cc1ccc(CS(=O)(=O)C/N=c2\sc3ccccc3nc2/C=C(\O)c2ccc(Cl)cc2)cc1`, the TGI in assay [1], in assay [2], in assay [3], in [4], in assay [9] and in assay [6] was over 10 µM each time. Also, the TGI in assay [7], in assay [10] and in assay [8] was over 10 µM throughout.
As for `CC(C)[Si](OC1=C(C(=O)N(C)c2ccccc2Cl)CCC1)(C(C)C)C(C)C`, the TGI turned out to be 50.2 µM in assay [1]; 29.8 µM in assay [3]; 39.7 µM in assay [4]; 35.4 µM in assay [5]; 29.1 µM in [9]; 21.6 µM in assay [6]. Moreover, the TGI came to 30.9 µM in [7] and 32.8 µM in assay [10].
`COP1(=O)NCc2ncccc2O1` (stereo not given): the TGI in assay [1], in assay [3], in assay [4], in assay [5], in assay [9] and in assay [6] was over 100 µM each time. Further, the TGI in [7] and in [8] was over 100 µM throughout.
For the compound `CSc1nc2c(N)ncnc2n1C`, the TGI in [1], in assay [2], in assay [4], in [5], in assay [9] and in assay [6] was over 100 µM in each case. In addition, the TGI in assay [7], in assay [10] and in assay [8] was over 100 µM in each case.
As for `Cc1ccc2c(=O)c(-c3nnc(N)s3)c[nH]c2n1`, the TGI in assay [1], in assay [2], in assay [3], in [4], in assay [5] and in [6] was over 100 µM each time. The TGI in assay [7] and in assay [8] was over 100 µM throughout.
Take `COc1ccc(C(C2C(=O)N(C)C(=O)N(C)C2=O)C(F)(F)C(=O)N(C)C)cc1` (stereo not given): the TGI in [1], in assay [3], in [4], in assay [5], in assay [9] and in assay [6] was over 100 µM throughout. For the same compound, the TGI in [7], in assay [10] and in assay [8] was over 100 µM each time.
For `Cc1ccc2[nH]c3[nH]c(=O)[nH]c(=O)c3c2c1`, the TGI in assay [1], in assay [2], in assay [3], in assay [5], in [9] and in assay [6] was over 100 µM throughout. Also, the TGI in [10] is over 100 µM.
In the case of `CCN1CC2=C(NC(=S)NC2c2cc(OC)c(OC)c(OC)c2)/C(=C/c2cc(OC)c(OC)c(OC)c2)C1` (stereo not given), the TGI in assay [1] was over 100 µM; in assay [3], over 100 µM; in assay [4] it was 47.2 µM; in [5], over 100 µM; in [9] it was 20.8 µM; in assay [6], over 100 µM. The TGI in [7], in [10] and in [8] was over 100 µM in each case.
Consider `C=C(C)[C@@]1(O)CCC[C@H]1NC(=O)OC(C)(C)C`, for which the TGI in [1], in assay [3], in assay [4], in assay [5], in assay [9] and in assay [6] was over 100 µM throughout. Moreover, the TGI in [7], in [10] and in assay [8] was over 100 µM throughout.
